The subject of test [1] is Clc-1 pre-mRNA splicing, HSA^LR transgenic mice. Description: Clc-1 exon 7a splicing in vastus muscle of HSA^LR mouse model of DM. The format is in vivo. The conditions noted are these: intraperitoneal, saline HSA^LR control 46±6%, normal mice 94±1%.
Description: Mouse handling and experimental procedures were conducted in accordance with the Association for Assessment and Accreditation of Laboratory Animal Care. HSA^LR transgenic mice in line 20b expressing human skeletal actin mRNA with ˜250 CUG repeats in the 3′ UTR were used (Mankodi et al., Science 289:1769-1772, 2000). Age- and gender-matched HSA^LR mice were injected intraperitoneally with pentamidine or saline (control). For a low-dose regimen, 25 mg/kg of pentamidine was administrated twice daily for 5 days. For a higher-dose regimen, 40 mg/kg of pentamidine was injected once daily for 7 days. Mice were sacrificed one day after the last injection, and vastus muscle was obtained for splicing analysis. […] PCR amplification was carried out for 22-24 cycles with the following primer pairs: Clc-1 forward, [sequence] (SEQ ID NO: 7), and reverse, [sequence] (SEQ ID NO: 8); Serca1 forward, [sequence] (SEQ ID NO: 9), and reverse, [sequence] (SEQ ID NO: 10). The PCR products were analyzed on agarose gels and scanned with a laser fluorimager (Typhoon, GE Healthcare, Piscataway, N.J.). Differences between the two groups were evaluated by Student's t-test.
In test [2] the test system is cTNT splicing reporter in HeLa cells. Description: cTNT splicing reporter (exon 5 inclusion) in HeLa cells with or without CUG960 plasmid. The format is cell-based. The settings on record: for cTNT exon 5 inclusion: absence of CUG repeats; for Rescue of cTNT exon 5 inclusion: cells expressing 960 CUG repeats. As to the method: HeLa cells were grown in monolayers in DMEM with GlutaMAX™ (Gibco, Carlsbad, Calif.) and supplemented with 10% fetal bovine serum. Approximately 2.0 (±0.2)×10^5 cells were plated in 6 well plates and transfected 18-20 hours later at 70-90% confluency. 1 μg of plasmid was transfected into each well of cells, using 5 μL of […] (Invitrogen) according to the manufacturer's protocols. For co-transfection, 1 μg of total plasmid was transfected, at 500 ng of each construct. Test compounds were added 4 hours after transfection, when the media was changed. Cells were harvested 18-22 hours after transfection using TrypLE™ reagent (Gibco).
Immediately following harvesting, RNA was isolated from the cell pellets using an RNeasy® kit (Qiagen, Valencia, Calif.). 500 ng of isolated RNA was DNased with RQI DNase (Promega, Madison, Wis.) according to manufacture's protocol. 100 ng of DNAsed RNA was reverse transcribed with Superscript® II (Invitrogen, Carlsbad, Calif.) and a cTNT-specific reverse primer according to manufacturer's protocols. 30 ng of the reverse transcription reaction was subjected to 22-25 rounds of PCR amplification using cTNT specific primers spiked with a forward primer 5′ end-labeled with [γ-^32P]ATP. Similar methods were used to reverse transcribe and amplify IR and PLEKHH2. […] The resulting PCR products were run on a 6% (19:1) polyacrylamide denaturing gel. The gel was subsequently autoradiographed and quantitation of the radioactive bands was performed using ImageQuant® software.
The following primer pairs were used. For the cTNT minigene, the forward primer was […] (SEQ ID NO: 1), and the reverse primer was […] (SEQ ID NO: 2). For the IR minigene, the forward primer was […] (SEQ ID NO: 3), and the reverse primer was […] (SEQ ID NO: 4). The underlined sections are for cloning purposes. For the PLEKHH2 minigene, the forward primer was […] (SEQ ID NO: 5), and the reverse primer was […] (SEQ ID NO: 6).
The ability of pentamidine to alter the splicing defects observed in a cell-based model for DM was tested. This was accomplished in a system using cells transformed with a plasmid expressing 960 CUG repeats where the expression of these CUG repeats causes splicing defects similar to those observed in DM cells and DM subjects (Savkur et al., Nature Genet. 29:40-47, 2001).

Test [3] deals with CUG repeats (fluorescein labeled RNA). Put plainly: Fluorescence anisotropy, direct binding to fluorescein labeled CUG repeats. The conditions noted are these: absence of MBNL, 25° C. As to the method:
Fluorescent RNAs were ordered from Dharmacon RNA Technologies (Lafayette, Colo.), and deprotected according to the manufacturer's protocol. RNA was snap annealed in 175 mM NaCl, 20 mM Tris pH 7.5, 5 mM MgCl2. All fluorescence anisotropy experiments were performed in this buffer, with the addition of 0.1 mg/ml of heparin when using protein. Experiments were performed at 25° C. in a 7.5 mm wide Spectrosil® far UV quartz cuvette (Starna Cells, Inc, Atascadero, Calif.), using an L-format FluoroMax®-3 fluorimeter (Horiba Jobin Yvon, Inc., Edison, N.J.). Each anisotropy run was normalized by setting the initial value of the anisotropy of the RNA alone to zero, which converts the data into Δ anisotropy. Curves were graphed using KaleidaGraph (Synergy) software. For curve fitting of titrations and determining apparent Kd values, Equation 1 was used (Example 1). The error bars on the binding curve were obtained by averaging individual titration points from three separate experiments and calculating the standard deviation.
To determine if pentamidine binds to the CUG repeats and not to MBNL, fluorescein labeled CUG repeats (FIG. 3A) were used to monitor the binding of pentamidine directly to the CUG repeats in the absence of MBNL.

Values joined by “and” are separate entries in the source; they are usually repeats but may differ in a detail not shown here. Equal entries are not always repeated. “Also recorded” adds a separate entry of the source.

Take `N=C(N)c1ccc(OCCCCCOc2ccc(C(=N)N)cc2)cc1` [pentamidine]: the “Clc-1 exon 7a exclusion” value is reported as 63±3% in test [1] (25 mg/kg twice daily for 5 days) and 66±4% in test [1] (40 mg/kg once daily for 7 days). Moreover, the “cTNT exon 5 inclusion” value is 62% in test [2] (25 μM) and 30% in test [2] (75 μM). Also, the “Rescue of cTNT exon 5 inclusion” value in test [2] (25 μM) is reported as “no effect”; in test [2] (50 μM), “partial rescue; also recorded: partially rescue the cTNT mis-splicing”; in test [2] (75 μM) it was “full recovery”. Besides, the “Concentration giving complete rescue of cTNT missplicing” value in test [2] (presence of the CUG960 construct) was 75 µM. For the same compound, in test [3], the Kd is ~19 µM and 19 µM.

The values are drawn from patent publication US8436049B2, “Uses of pentamidine and related compounds” (State of Oregon Acting By and Through the State Board of …, priority 2008, dated 2013).
